According to US20210236840A1, “COMBINED SONODYNAMIC AND PHOTODYNAMIC THERAPY TO TREAT DEEP SEATED CANCER AND OTHER HYPERPOLIFERATIVE DISEASE AND ULTRASOUND AND LIGHT TRIGGERED RELEASE OF NEAR INFRARED PHOTOSENSITIZERS AND CHEMOTHERAPY AGENTS FROM POLYACRLAMIDE BASED NANOPARTICLES” (Photolitec, LLC, priority 2020, published 2021):

Columns and labels:
U87 Glioma xenografts = assay: In vivo PDT and PDT-SDT combination response; conditions: PDT alone; SCID mice bearing U87 Glioma xenografts
[1] = system: Colon 26 tumors and U87 tumors; assay: Photobac-PDT vascular shutdown, CD31 staining of tumor sections; format: in vivo, BALB/C mice; nude mice; conditions: 787 nm, 135 J/cm2, 75 mW/cm2 at 24 h post-injection; 0.25 μmol/kg (Colon 26) or 0.75 μmol/kg (U87)
U87 tumors = assay: Long-term tumor cure by Photobac-PDT; format: in vivo, SCID mice; conditions: laser light at 787 nm; for CR: 60 days
Method: Analysis of anticancer efficacy of Photobac was injected in tumor-bearing mice and treated with the laser light at 787 nm. Tumor cure was monitored for 60 days post-laser treatment. […] Photobac is being developed for the treatment of glioblastoma by Photolitec, LLC (a spin-off of RPCI) has received an ORPHAN DRUG STATUS from FDA.
Long-term tumor cure by Photobac-PDT on treating nude mice (female) bearing U87 tumors (shoulder) at variable drug doses. The tumors were exposed with light (787 nm, 135 J/cm^2, 75 mW/cm^2) at 24 h post injection. Comparative long-term cure of Photobac-PDT treatment in both and female SCID mice bearing U87 tumors (shoulder) under similar treatment parameters (drug dose: 0.75 μmol/kg; light dose: 135 J/cm^2, 75 mW/cm^2.

| Compound | complete response (U87 Glioma xenografts) | vascular effect of PDT [1] | mice tumor free up to 60 days (U87 tumors; female SCID mice) | CR (U87 tumors; female SCID mice) | mice tumor free up to 60 days (U87 tumors; male mice) | CR (U87 tumors; male mice) |
| --- | --- | --- | --- | --- | --- | --- |
| CCCCCCOC(C)c1c(C)c2cc3nc(c4c5[nH]c(cc6nc(cc1[nH]2)C(C)=C6CC)c(C)c5C(=O)C4)[C@@H](CCC(=O)O)[C@@H]3C (stereo partly drawn) [HPPH, 2-(1-Hexyloxyethyl)-2-devinyl pyropheophorbide-a] | 37% |  |  |  |  |  |
| CCCCOC(C)C1=C(C)c2cc3nc(c4c5[nH]c(cc6[nH]c(cc1n2)[C@H](C)[C@H]6CC)c(C)c5C(=O)N(CCCC)C4=O)[C@@H](CCC(=O)OC)[C@@H]3C (stereo partly drawn) [Photobac, bacteriopurpurinimide] |  | causes vascular shutdown | 4/5 | 80% | 4/7 | 60% |
